Converted amounts (≈) assume the structure as drawn. “And” between values parts separate entries of the source, which are not always exact repeats. Identical values can stand only once. Marks after values point to notes of the source that are not given here.
Assays:
[1] = system: Candida albicans ATCC10231; test: Broth microdilution MIC/MMC; settings: for MMC: sub-culturing after broth microdilution; for MIC: Candida albicans, ATCC10231
[2] = system: Cryptococcus neoformans H99; test: Broth microdilution MIC/MMC; settings: for MMC/MIC / MMC: C. neoformans; for MMC: sub-culturing after broth microdilution; for MIC: Cryptococcus neoformans, H99
[3] = system: Pseudomonas aeruginosa ATCC27853; test: Broth microdilution MIC/MMC; settings: for MMC/MIC / MMC: P. aeruginosa; for MMC: sub-culturing after broth microdilution; for MIC: Pseudomonas aeruginosa, ATCC27853
Shigella flexneri SDINT = test: Broth microdilution MIC/MMC; settings: for MMC / MMC/MIC: S. flexneri; for MMC: sub-culturing after broth microdilution; for MIC: Shigella flexneri
[4] = system: Staphylococcus aureus ATCC25923; test: Broth microdilution MIC/MMC; settings: for MMC / MMC/MIC: S. aureus; for MMC: sub-culturing after broth microdilution; for MIC: Staphylococcus aureus, ATCC25923
[5] = system: methicillin sensitive S. aureus MSSA01; test: Broth microdilution MIC/MMC; settings: for MMC / MMC/MIC: MSSA01; for MMC: sub-culturing after broth microdilution; for MIC: Staphylococcus aureus
[6] = system: methicillin resistant S. aureus MRSA03; test: Broth microdilution MIC/MMC; settings: for MMC / MMC/MIC: MRSA03; for MMC: sub-culturing after broth microdilution; for MIC: Staphylococcus aureus
[7] = system: bacterial and yeast species; test: Checkerboard combination with antibiotics, whole panel; format: cell-based; settings: overall statement over the microorganisms tested
Method: (§1) The inoculum was initially prepared as described above. The test microorganisms were inoculated into a 96-well microtitre plates and a serial dilution of two antimicrobial agents: antibiotic and MeOH extract, compound 2 or 4. Each well consisted of unique combination of test sample and antibiotic concentrations. The plates were then incubated for 24 h at 37 °C. The analyses were performed in triplicates. And the antimicrobial agents interactions were evaluated by calculating the fractional inhibitory concentration (FIC) indices. The FIC is defined as follows: MIC of antibiotic tested in combination/MIC of antibiotic tested alone + MIC of extract/compound tested in combination/MIC of extract/compound tested alone. The FIC index is interpreted as FIC ≤ 0.5: synergistic effect, 0.5 < FIC ≤1: additive effect, 1 < FIC ≤2: indifferent effect, and FIC > 2.0: antagonistic effect.

P. aeruginosa = test: Checkerboard combination with antibiotic (FIC); format: cell-based, Pseudomonas aeruginosa; settings: combined with ciprofloxacin
[8] = Gallic acid equivalent antioxidant capacity (GEAC) assay; format: biochemical; settings: laccase/ABTS, 420 nm after 240 s; mean ± SD
Method: The GEAC test was done as previously described with slight modifications. In a quartz cuvette, to 950 μL acetate buffer (pH =5.0, 100 mM), the following were added: 20 μL laccase (1 mM stock solution), 20 μL test sample, 10 μL ABTS (2,2′-azinobis(3-ethylbenzothiazoline-6-sulfonic acid) (74 mM stock solution). The purification of laccase from Sclerotinia sclerotiorum was done according to the protocol described. The sample concentrations in the assay mixture were 800, 400, 200, 100, 10 μg/mL for the extracts and 200, 100, 50, 25, 12.5, 6.25, 3.125, 1.56 μg/mL for the isolated compounds. The content of the generated ABTS^●+ radical was measured at 420 nm after 240 s reaction time and was converted to gallic acid equivalents by the use of a calibration curve (Pearson’s correlation coefficient: r = 0.997) constructed with 0, 4, 10, 14, 28, 56, 84 μM gallic acid standards rather than Trolox. Experiments were done in triplicate.

S. flexneri = test: Checkerboard combination with antibiotic (FIC); format: cell-based, Shigella flexneri; settings: combined with ciprofloxacin
Method: as §1

S. aureus = test: Checkerboard combination with antibiotic (FIC); format: cell-based, Staphylococcus aureus; settings: combined with ciprofloxacin
MRSA03 = test: Checkerboard combination with antibiotic (FIC); format: cell-based, Staphylococcus aureus; settings: combined with ciprofloxacin
C. neoformans = test: Checkerboard combination with antibiotic (FIC); format: cell-based, Cryptococcus neoformans; settings: combined with fluconazole, checkerboard
MSSA01 = test: Checkerboard combination with antibiotic (FIC); format: cell-based, Staphylococcus aureus; settings: combined with ciprofloxacin
C. albicans = test: Checkerboard combination with antibiotic (FIC); format: cell-based, Candida albicans; settings: combined with fluconazole, checkerboard
[9] = DPPH free radical scavenging assay; format: biochemical; settings: mean ± SD, triplicate
Method: The free radical scavenging activity of extracts and compounds was evaluated according to described methods. The EC50 (μg/ml), which is the amount of sample necessary to inhibit by 50% the absorbance of free radical DPPH was calculated. Vitamin C was used as a standard control. All the analyses were carried out in triplicate.

For `CC(C)[C@@H](C)C=C[C@@H](C)[C@H]1CC[C@H]2[C@]3(O)C=CC4(O)CC(O)CC[C@]4(C)[C@H]3CC[C@]12C` (some centres unmarked) [Compound 3, Ergosta-6,22-diene-3,5,8-triol], the MMC ([1]; C. albicans) was over 256 µg/mL, the MIC [1] was 128 mg/L (≈ 297 µM) and the MMC/MIC [2] was 2. It also gave an MMC [2] of 128 µg/mL, an MIC [2] of 64 mg/L (≈ 149 µM) and an MMC/MIC [3] of 2. For the same molecule, the MMC [3] was 256 µg/mL, the MIC [3] was 128 mg/L (≈ 297 µM) and the MMC (Shigella flexneri SDINT) was over 256 µg/mL. For the same molecule, the MIC (Shigella flexneri SDINT) was 128 mg/L (≈ 297 µM), the MMC [4] was over 256 µg/mL and the MIC [4] was 256 mg/L (≈ 594 µM). The MMC [5] was over 256 µg/mL, the MIC [5] was over 256 mg/L and the MMC [6] was over 256 µg/mL. The MIC [6] was over 256 mg/L.
In the case of `O=C(O)c1cn(C2CC2)c2cc(N3CCNCC3)c(F)cc2c1=O` [ciprofloxacin, Ciprofloxacin, reference compound], the MMC/MIC [3] is reported as 1, the MMC [3] is reported as 0.5 µg/mL and the MIC [3] is reported as 0.5 mg/L (≈ 1.51 µM). The MMC/MIC (Shigella flexneri SDINT) was 1, the MMC (Shigella flexneri SDINT) was 8 µg/mL and the MIC (Shigella flexneri SDINT) was 8 mg/L (≈ 24.1 µM). For the same molecule, the MMC/MIC [4] was 1, the MMC [4] was 0.5 µg/mL and the MIC [4] was 0.5 mg/L (≈ 1.51 µM). The MMC/MIC [5] was 1, the MMC [5] was 4 µg/mL and the MIC [5] was 4 mg/L (≈ 12.1 µM). The MMC/MIC [6] was 1, the MMC [6] was 4 µg/mL and the MIC [6] was 4 mg/L (≈ 12.1 µM).
In the case of `Cc1cc(O)c2c(c1)C(=O)c1cc(O)cc(O)c1C2=O` [Compound 4, Emodin], the “effect of the association with ciprofloxacin (bacteria) / fluconazole (yeasts)” value [7] is reported as “synergistic”, the MMC/MIC ([1]; C. albicans) is reported as 1 and the MMC ([1]; C. albicans) is reported as 8 µg/mL. For the same molecule, the MIC [1] was 8 mg/L (≈ 29.6 µM), the “Interpretation (of FIC index)” value (P. aeruginosa) was “Synergistic (FIC ≤ 0.5: synergistic effect)” and the “FICEx / FIC2 / FIC5 (MIC of extract/compound tested in combination/MIC of extract/compound tested alone)” value (P. aeruginosa; checkerboard) was 0.125. For the same molecule, the MMC/MIC [2] was 1, the MMC [2] was 8 µg/mL and the MIC [2] was 8 mg/L (≈ 29.6 µM). It also gave an MMC/MIC [3] of 1, an MMC [3] of 16 µg/mL and an MIC [3] of 16 mg/L (≈ 59.2 µM). It also gave an MMC/MIC (Shigella flexneri SDINT) of 2, an MMC (Shigella flexneri SDINT) of 16 µg/mL and an MIC (Shigella flexneri SDINT) of 8 mg/L (≈ 29.6 µM). For the same molecule, the “Gallic acid equivalent antioxidant capacity (GEAC)” value [8] was 79.54 ± 1.26 μg/mL and 79.54 ± 1.26^e μg/mL, the “Interpretation (of FIC index)” value (S. flexneri) was “Synergistic (FIC ≤ 0.5: synergistic effect)” and the “FIC (fractional inhibitory concentration index)” value (S. flexneri; checkerboard) was 0.31. The “FICEx / FIC2 / FIC5 (MIC of extract/compound tested in combination/MIC of extract/compound tested alone)” value (S. flexneri; checkerboard) was 0.25, the “FICA (MIC of antibiotic tested in combination/MIC of antibiotic tested alone)” value (S. flexneri; checkerboard, 24 h at 37 °C) was 0.0625 and the “Interpretation (of FIC index)” value (S. aureus) was “Additive (0.5 < FIC ≤1: additive effect)”. The “FIC (fractional inhibitory concentration index)” value (S. aureus; checkerboard) was 0.625, the “FICEx / FIC2 / FIC5 (MIC of extract/compound tested in combination/MIC of extract/compound tested alone)” value (S. aureus; checkerboard) was 0.125 and the “FICA (MIC of antibiotic tested in combination/MIC of antibiotic tested alone)” value (S. aureus; checkerboard, 24 h at 37 °C) was 0.5. For the same molecule, the “FIC (fractional inhibitory concentration index)” value (MRSA03) was 0.375, the “FICEx / FIC2 / FIC5 (MIC of extract/compound tested in combination/MIC of extract/compound tested alone)” value (MRSA03) was 0.125 and the “FICA (MIC of antibiotic tested in combination/MIC of antibiotic tested alone)” value (MRSA03; 24 h at 37 °C) was 0.25. The “FIC (fractional inhibitory concentration index)” value (C. neoformans) was 0.75, the “FICEx / FIC2 / FIC5 (MIC of extract/compound tested in combination/MIC of extract/compound tested alone)” value (C. neoformans) was 0.5 and the “FICA (MIC of antibiotic tested in combination/MIC of antibiotic tested alone)” value (C. neoformans; 24 h at 37 °C) was 0.25. For the same molecule, the “FIC (fractional inhibitory concentration index)” value (MSSA01) was 0.5, the “FICEx / FIC2 / FIC5 (MIC of extract/compound tested in combination/MIC of extract/compound tested alone)” value (MSSA01) was 0.25 and the “FICA (MIC of antibiotic tested in combination/MIC of antibiotic tested alone)” value (MSSA01; 24 h at 37 °C) was 0.25. For the same molecule, the MMC/MIC [4] was 1, the MMC [4] was 8 µg/mL and the MIC [4] was 8 mg/L (≈ 29.6 µM). The MMC/MIC [5] was 1, the MMC [5] was 32 µg/mL and the MIC [5] was 32 mg/L (≈ 118 µM). The “FIC (fractional inhibitory concentration index)” value (C. albicans) was 0.75, the “FICEx / FIC2 / FIC5 (MIC of extract/compound tested in combination/MIC of extract/compound tested alone)” value (C. albicans) was 0.5 and the “FICA (MIC of antibiotic tested in combination/MIC of antibiotic tested alone)” value (C. albicans; 24 h at 37 °C) was 0.25. The MMC/MIC [6] was 1, the MMC [6] was 32 µg/mL and the MIC [6] was 32 mg/L (≈ 118 µM). The “DPPH free radical scavenging activity (EC50)” value [9] was 10.69 ± 0.51^f μg/mL.

Source: PMC8180025, “Antibacterial, antifungal and antioxidant activities of whole plant chemical constituents of Rumex abyssinicus” (BMC Complementary Medicine and Therapies, 2021)
